Assays:
[1] = tested on: MCF7 cell line; test: In vitro cytotoxic activity, MTT method, MCF7; format: cell-based, human; settings: for IC50: Homo sapiens, MCF7, MCF7 cell line, MTT
Description: (§1) Cell lines: The in vitro human breast cancerous cell line (MCF7), lung cancerous cell lines (A549) and normal cell lines were purchased from Serum and Vaccine formulation in Cairo-Egypt.
(§2) In vitro cytotoxic activity of all synthesized compounds against two human breast cell line (MCF7) and lung cell lines (A549) was evaluated according to the MTT method. Firstly, Growth the cell line medium in 96 well tissue culture plate was injected with 10^5 cells/mL (100 uL/plate well) of the cell line and incubated at 37 °C for 24 h to develop a monolayer sheet then the formed growth medium was poured from 96 well microtiter plates after the confluent sheet of cells. […] Secondly, add 0.1 mL of each concentration tetrahydroisoquinoline sample to each plate. The plates were incubated at 37 °C. Thirdly MTT solution (5 mg/mL in PBS) is prepared. Add 20 µL of MTT solution to each well plates. And shaking in 150 rpm for 5 min, to mix the MTT into the media. Then incubate at (37 °C, 5% CO2) for 1–5 h. Finally read the optical density at 560 nm and subtract background at 620 nm.
(§3) In this work, doxorubicin was used as a positive control drug for comparison with the synthesized compounds under the same experimental conditions.

[2] = tested on: A549 cell line; test: In vitro cytotoxic activity, MTT method, A549; settings: for IC50: Homo sapiens, read-out: IC50 ± SD
Description: as §1, §2, §3

CC(=O)C1C(c2ccc(N(C)C)cc2)c2c(C)nc(SCC(N)=O)c(C#N)c2CC1(C)O (centres unmarked) [Compound 5, 2-[(7-Acetyl-4-cyano-1,6-dimethyl-6-hydroxy-8-(4-N,N-dimethylamino-phenyl)-5,6,7,8-tetrahydroisoquinolin-3-yl)thio]acetamide]
IC50 [1]: 924 ± 7 nM | Toxicity % ([1]; MCF7, 0.0487 µMol): -4.567% | Viability % ([1]; MCF7, 0.0487 µMol): 104.5% | Toxicity % ([1]; MCF7, 0.0975 µMol): -3.545% | Viability % ([1]; MCF7, 0.0975 µMol): 103.6% | Toxicity % ([1]; MCF7, 0.195 µMol): -2.859% | Viability % ([1]; MCF7, 0.195 µMol): 102.9% | Toxicity % ([1]; MCF7, 0.391 µMol): 4.208% | Viability % ([1]; MCF7, 0.391 µMol): 95.79% | Toxicity % ([1]; MCF7, 0.781 µMol): 35.46% | Viability % ([1]; MCF7, 0.781 µMol): 64.54% | Toxicity % ([1]; MCF7, 1.562 µMol): 77.53% | Viability % ([1]; MCF7, 1.562 µMol): 22.47% | Toxicity % ([1]; MCF7, 3.125 µMol): 88.89% | Viability % ([1]; MCF7, 3.125 µMol): 11.11% | Toxicity % ([1]; MCF7, 6.25 µMol): 93.91% | Viability % ([1]; MCF7, 6.25 µMol): 6.087% | Toxicity % ([1]; MCF7, 12.5 µMol): 96.85% | Viability % ([1]; MCF7, 12.5 µMol): 3.145% | Toxicity % ([1]; MCF7, 25 µMol): 97.22% | Viability % ([1]; MCF7, 25 µMol): 2.778% | Toxicity % ([2]; A549, Conc. 0.0487 µMol): 0% | Viability % ([2]; A549, Conc. 0.0487 µMol): 100% | Toxicity % ([2]; A549, Conc. 0.0975 µMol): 0.13% | Viability % ([2]; A549, Conc. 0.0975 µMol): 99.87% | Toxicity % ([2]; A549, Conc. 0.195 µMol): 0.3156% | Viability % ([2]; A549, Conc. 0.195 µMol): 99.68% | Toxicity % ([2]; A549, Conc. 0.391 µMol): 9.625% | Viability % ([2]; A549, Conc. 0.391 µMol): 90.37% | Toxicity % ([2]; A549, Conc. 0.781 µMol): 36.96% | Viability % ([2]; A549, Conc. 0.781 µMol): 63.04% | Toxicity % ([2]; A549, Conc. 1.562 µMol): 54.08% | Viability % ([2]; A549, Conc. 1.562 µMol): 45.92% | Toxicity % ([2]; A549, Conc. 3.125 µMol): 69.66% | Viability % ([2]; A549, Conc. 3.125 µMol): 30.34% | Toxicity % ([2]; A549, Conc. 6.25 µMol): 83.27% | Viability % ([2]; A549, Conc. 6.25 µMol): 16.73% | Toxicity % ([2]; A549, Conc. 12.5 µMol): 91.6% | Viability % ([2]; A549, Conc. 12.5 µMol): 8.402% | Toxicity % ([2]; A549, Conc. 25 µMol): 96.37% | Viability % ([2]; A549, Conc. 25 µMol): 3.629% | IC50 [2]: 1247 ± 2 nM

CCOC(=O)CSc1nc(C)c2c(c1C#N)CC(C)(O)C(C(C)=O)C2c1ccc(N(C)C)cc1 (centres unmarked) [Compound 4, Ethyl 2-((7-Acetyl-4-cyano-1,6-dimethyl-6-hydroxy-8-(4-N,N-dimethylamino-phenyl)-5,6,7,8-tetrahydroisoquinolin-3-yl)thio)acetate]
IC50 [1]: 3074 ± 8 nM | Toxicity % ([1]; MCF7, 0.0487 µMol): 0.03467% | Viability % ([1]; MCF7, 0.0487 µMol): 99.94% | Toxicity % ([1]; MCF7, 0.0975 µMol): 0.06434% | Viability % ([1]; MCF7, 0.0975 µMol): 99.94% | Toxicity % ([1]; MCF7, 0.195 µMol): 0.0817% | Viability % ([1]; MCF7, 0.195 µMol): 99.92% | Viability % ([1]; MCF7, 0.391 µMol): 100% | Toxicity % ([1]; MCF7, 0.781 µMol): 7.925% | Viability % ([1]; MCF7, 0.781 µMol): 92.08% | Toxicity % ([1]; MCF7, 1.562 µMol): 23.41% | Viability % ([1]; MCF7, 1.562 µMol): 76.59% | Toxicity % ([1]; MCF7, 3.125 µMol): 36.89% | Viability % ([1]; MCF7, 3.125 µMol): 63.11% | Toxicity % ([1]; MCF7, 6.25 µMol): 82.07% | Viability % ([1]; MCF7, 6.25 µMol): 17.93% | Toxicity % ([1]; MCF7, 12.5 µMol): 91.75% | Viability % ([1]; MCF7, 12.5 µMol): 8.252% | Toxicity % ([1]; MCF7, 25 µMol): 96.81% | Viability % ([1]; MCF7, 25 µMol): 3.186% | Toxicity % ([2]; A549, Conc. 0.0487 µMol): 1.8% | Viability % ([2]; A549, Conc. 0.0487 µMol): 98.2% | Toxicity % ([2]; A549, Conc. 0.0975 µMol): 2% | Viability % ([2]; A549, Conc. 0.0975 µMol): 98% | Toxicity % ([2]; A549, Conc. 0.195 µMol): 3.945% | Viability % ([2]; A549, Conc. 0.195 µMol): 96.06% | Toxicity % ([2]; A549, Conc. 0.391 µMol): 21.14% | Viability % ([2]; A549, Conc. 0.391 µMol): 78.86% | Toxicity % ([2]; A549, Conc. 0.781 µMol): 32.54% | Viability % ([2]; A549, Conc. 0.781 µMol): 67.46% | Toxicity % ([2]; A549, Conc. 1.562 µMol): 62.13% | Viability % ([2]; A549, Conc. 1.562 µMol): 37.87% | Toxicity % ([2]; A549, Conc. 3.125 µMol): 70.97% | Viability % ([2]; A549, Conc. 3.125 µMol): 29.03% | Toxicity % ([2]; A549, Conc. 6.25 µMol): 89.19% | Viability % ([2]; A549, Conc. 6.25 µMol): 10.81% | Toxicity % ([2]; A549, Conc. 12.5 µMol): 95.94% | Viability % ([2]; A549, Conc. 12.5 µMol): 4.063% | Toxicity % ([2]; A549, Conc. 25 µMol): 97.28% | Viability % ([2]; A549, Conc. 25 µMol): 2.722% | IC50 [2]: 918 ± 2 nM

Reference: PMC10873978, “Novel tetrahydroisoquinolines as DHFR and CDK2 inhibitors: synthesis, characterization, anticancer activity and antioxidant properties” (BMC Chemistry, 2024)
